Measured values: paper PMC11775389, “Catalytic mechanism underlying the regiospecificity of coumarin-substrate transmembrane prenyltransferases in Apiaceae” (Plant and Cell Physiology, 2024)
Read-outs that look alike come from different tables or passages of the source. Values belong to the molecule of their own block, whether it stands above or below them.

Legend:
[1] = tested on: AgPT1; details: read-out: apparent Km, divalent cation
[2] = molecular target: T1, PsPT1 (Pastinaca sativa, UniProt A0A0U1ZEE9); experiment: UHPLC of prenylated product, microsomes; assay type: biochemical; details: C6 product (demethylsuberosin); DMAPP co-substrate, Mg2+, 28 °C; read-out: Demethylsuberosin / (C6-position product) / Umbelliferone
T1 construct: gene PT1; full CDS (with transit peptide) in pGWB502; transient expression in Nicotiana benthamiana leaves, microsomes
Source text: (§1) UHPLC of prenylated product, microsomes on PsPT1

[3] = tested on: CC(C)=CCOP(=O)(O)OP(=O)(O)O; experiment: UHPLC of prenylated product, microsomes; assay type: biochemical, Pastinaca sativa; details: C6 product (demethylsuberosin), umbelliferone co-substrate, Mg2+, 28 °C
Source text: as §1

[4] = tested on: O=c1ccc2ccc(O)cc2o1; experiment: UHPLC of prenylated product, microsomes; assay type: biochemical, Pastinaca sativa; details: D2P8 (T/A), C6 product (demethylsuberosin), DMAPP co-substrate, Mg2+, 28 °C
Source text: as §1

Km ([1]; umbelliferone co-substrate): 10 ± 3 µM
Molecule: CC(C)=CCOP(=O)(O)OP(=O)(O)O [DMAPP]

Km [2]: 2.7 ± 0.6 µM | Km ([1]; DMAPP co-substrate): 40 ± 20 µM
Molecule: O=c1ccc2ccc(O)cc2o1 [umbelliferone]

Molecule: PsPT1 (Pastinaca sativa)
Km [3]: 5 ± 1 µM

Molecule: PsPT1 (Pastinaca sativa; T161A)
Km ([3]; D2P8 (T/A)): 4.4 ± 0.8 µM | Km [4]: 47 ± 7 µM
